Source: publication PMC4640093, “Lipophilic prodrugs of nucleoside triphosphates as biochemical probes and potential antivirals” (Nature Communications, 2015)

Columns and labels:
[1] = Chemical hydrolysis in PBS, pH 7.3; type: physicochemical; details: PBS pH 7.3, 37 °C; for t1/2(1) PBS, pH=7.3: removal of first masking unit (half-lives of 3); for t1/2(2) PBS, pH=7.3: second hydrolysis step, half-lives of intermediate 4 to give d4TTP 19
Method: Stock solutions (50 mM in DMSO-d6) of the appropriate compounds were prepared. After dilution of 11 μl with 100 μl Millipore water and 189 μl DMSO-d6 to 1.9 mM hydrolysis solutions the reaction was started by the addition of 300 μl PBS (50 mM, pH 7.3). The solution was incubated at 37 °C in a thermomixer. An initial aliquot (25 μl) was taken directly and analysed by analytical HPLC at 265–266 nm. Further aliquots were taken for monitoring the kinetic hydrolysis. The exponential decay curves (pseudo-first order) based on absolute integral values were calculated with commercially available software (OriginPro 9.0G) and yielded the half-lives t1/2(1) and t1/2(2) of the prodrugs via one determination.

pig liver esterase (PLE) = assay: Enzymatic hydrolysis with pig liver esterase (PLE) in PBS; type: in vitro ADME; details: PLE in PBS pH 7.3, 37 °C; for t1/2(1) PLE: removal of first masking unit (half-lives of 3); for t1/2(2) PLE: second hydrolysis step, half-lives of intermediate 4
Method: Furthermore, 140 μl of the 6.0 mM solution was diluted with 105 μl DMSO-d6 and 700 μl 50 mM PBS buffer. The reaction was started by addition of 52.5 μl of PLE in PBS buffer (3 mg ml^−1) and the mixture was incubated at 37 °C in a thermomixer. At different times, aliquots (125 μl) were taken and treated as follows: (a) for 3a–g,l,m and 4a,e the reaction was stopped by addition to 132.5 μl MeOH. […] (b) For 3h,i,k,n and 4j, the sample was directly frozen in liquid nitrogen.

HIV-1(IIIB) = assay: Anti-HIV activity assay, HIV-1 in wild-type CEM/0 cells; type: cell-based; details: HIV-induced giant cell formation, mean±s.d., n=2–3
Method: (§1) Inhibition of HIV-1(IIIB)- and HIV-2(ROD)-induced cytopathicity in wild-type CEM/0 and TK-deficient CEM/TK^− cell cultures was measured in microtitre 96-well plates containing ∼3 × 10^5 CEM cells ml^−1 infected with 100 CCID50 of HIV per millilitre and containing appropriate dilutions of the test compounds. After 4−5 days of incubation at 37 °C in a CO2-controlled humidified atmosphere, CEM giant (syncytium) cell formation was examined microscopically. The EC50 (50% effective concentration) was defined as the compound concentration required to inhibit HIV-induced giant cell formation by 50%.

HIV-2(ROD) [2] = assay: Anti-HIV activity assay, HIV-2 in wild-type CEM/0 cells; type: cell-based; details: wild-type CEM cells, HIV-induced giant cell formation; mean±s.d., n=2–3; read-out: EC50 CEM HIV-2
Method: as §1

HIV-2(ROD) [3] = assay: Anti-HIV activity assay, HIV-2 in TK-deficient CEM/TK− cells; type: cell-based; details: thymidine kinase-deficient CEM/TK− cells; mean±s.d., n=2–3
Method: as §1

CD4+ T-cell (CEM) = assay: Cytotoxicity: inhibition of CEM cell proliferation; type: cell-based, human; details: 50% cytostatic concentration, mean±s.d., n=2–3
[4] = Enzyme-catalysed hydrolysis in CEM cell extracts; details: for t1/2(1) CEM: human CEM cell extract, 37 °C
Method: The hydrolysis mixtures were analysed by means of analytical RP-18-HPLC.
A volume of 10 μl of the appropriate 50 mM DMSO-d6 stock solution was diluted to 6.0 mM hydrolysis solution by addition of 73.3 μl DMSO-d6. Seven different samples including 10 μl water and 10 μl hydrolysis solution were prepared. The reaction was started by addition of 50 μl human CEM cell extract and the mixture was incubated at 37 °C for different time periods of hydrolysis. The work-up depended on the particular compound: (a) for 3a–f,l,m,p and 4a,e the reactions were stopped by addition of 150 μl MeOH. The solution was kept on ice for 5 min followed by centrifugation for 5 min (13,000 r.p.m.). The supernatants were filtered (Chromafil RC-20/15 MS, 0.2 μm) and stored in liquid nitrogen. (b) For 3g–i,k,n and 4j, the samples were directly frozen in liquid nitrogen. The solution was defrosted followed by ultrasonication for 10 min. After centrifugation for 5 min the supernatants were filtered (Chromafil AO-20/3, 0.2 μm) and stored at −196 °C. (c) For 3j the mixture was diluted with 70 μl THF (HPLC grade) and frozen in liquid nitrogen followed by defrosting, ultrasonication, centrifugation, filtration and stored as described for (b). Samples were defrosted and 50–80 μl were subjected to HPLC analysis.
Human CD4^+ T-lymphocyte CEM cells were grown in RPMI-1640-based cell culture medium to a final density of ∼3·10^6 cells ml^−1. Then, cells were centrifuged for 10 min at 1,250 r.p.m. at 4 °C, washed twice with cold PBS and the pellet was resuspended at 10^8 cells ml^−1 and sonicated (Hielscher Ultrasound Techn., 100% amplitude, three·times for 10 s) to destroy cell integrity. The resulting cell suspension was then centrifuged at 10,000 r.p.m. to remove cell debris, and the supernatant divided into aliquots before being frozen at −80 °C and used.

SMILES	t1/2(1) PBS, pH=7.3 [1] [h]	t1/2(2) PBS, pH=7.3 [1] [h]	t1/2(1) PLE (pig liver esterase (PLE)) [h]	t1/2(2) PLE (pig liver esterase (PLE)) [h]	EC50 (HIV-1(IIIB)) [nM]	EC50 (HIV-2(ROD) [2]) [nM]	EC50 (HIV-2(ROD) [3]) [nM]	CC50 (CD4+ T-cell (CEM)) [nM]	t1/2(1) CEM [4] [h]	t1/2 in cell extracts ([4]; degradation of the nucleotide in CEM cell extracts) [h]
CCC(=O)Oc1ccc(COP(=O)(OCc2ccc(OC(=O)CC)cc2)OP(=O)(O)OP(=O)(O)OC[C@@H]2C=C[C@H](n3cc(C)c(=O)[nH]c3=O)O2)cc1 [3b, γ-Bis-(4-propanoyloxybenzyl)-d4TTP]	17	150	0.42	33	460 ± 210	1160 ± 150	> 10000	57000 ± 6000	0.12	
CCCCCCCCCCCCCCCCCC(=O)Oc1ccc(COP(=O)(O)OP(=O)(O)OP(=O)(O)OC[C@@H]2C=C[C@H](n3cc(C)c(=O)[nH]c3=O)O2)cc1 [4j, γ-Mono-(4-octadecanoyloxybenzyl)-d4TTP]		637		57					4.6	
CCCCCCCC/C=C\CCCCCCCC(=O)Oc1ccc(COP(=O)(OCc2ccc(OC(=O)CCCCCCC/C=C\CCCCCCCC)cc2)OP(=O)(O)OP(=O)(O)OC[C@@H]2C=C[C@H](n3cc(C)c(=O)[nH]c3=O)O2)cc1 [3k, γ-Bis(4-(Z)-octadec-9-enoyloxybenzyl)-d4TTP]	27	92	42		300 ± 10	470 ± 100	930 ± 470	25000 ± 1000	4.3	
COC(=O)Oc1ccc(COP(=O)(OCc2ccc(OC(=O)OC)cc2)OP(=O)(O)OP(=O)(O)OC[C@@H]2C=C[C@H](n3cc(C)c(=O)[nH]c3=O)O2)cc1 [3l, γ-Bis-(4-methyloxycarbonyloxybenzyl)-d4TTP]	24	200	3.8	177	400	920 ± 120	> 10000	16000 ± 1000	0.97	
Cc1cn([C@H]2C=C[C@@H](COP(=O)(O)OP(=O)(O)OP(=O)(O)O)O2)c(=O)[nH]c1=O [d4TTP 19, reference compound]										0.63
CCCCCCCCCC(=O)Oc1ccc(COP(=O)(OCc2ccc(OC(=O)CCCCCCCCC)cc2)OP(=O)(O)OP(=O)(O)OC[C@@H]2C=C[C@H](n3cc(C)c(=O)[nH]c3=O)O2)cc1 [3f, γ-Bis-(4-decanoyloxybenzyl)-d4TTP]	44	350	0.082	3.0	250 ± 70	330 ± 30	500 ± 140	34000 ± 5000	2.8	
CCCCCCC(=O)Oc1ccc(COP(=O)(OCc2ccc(OC(=O)CCCCCC)cc2)OP(=O)(O)OP(=O)(O)OC[C@@H]2C=C[C@H](n3cc(C)c(=O)[nH]c3=O)O2)cc1 [3d, γ-Bis-(4-heptanoyloxybenzyl)-d4TTP]	26	350	0.013	1.6	360 ± 60	940 ± 160	10000	74000 ± 2000	0.98	
CCCCCCCCOC(=O)N(C)CCN(C)C(=O)Oc1ccc(COP(=O)(OCc2ccc(OC(=O)N(C)CCN(C)C(=O)OCCCCCCCC)cc2)OP(=O)(O)OP(=O)(O)OCC2C=CC(n3cc(C)c(=O)[nH]c3=O)O2)cc1 (stereo not drawn) [3p, γ-Bis-(4-(octyl-ethane-1,2-diylbis(methylcarbamate))-oxybenzyl)-d4TTP]	48								5.6	
CC(=O)Oc1ccc(COP(=O)(OCc2ccc(OC(C)=O)cc2)OP(=O)(O)OP(=O)(O)OC[C@@H]2C=C[C@H](n3cc(C)c(=O)[nH]c3=O)O2)cc1 [3a, γ-Bis-(4-acetyloxybenzyl)-d4TTP]	18	75	1.9	71	430 ± 250	720 ± 160	> 10000	63000 ± 2000	0.050	
CCCCCCCCCCCCCC(=O)Oc1ccc(COP(=O)(OCc2ccc(OC(=O)CCCCCCCCCCCCC)cc2)OP(=O)(O)OP(=O)(O)OC[C@@H]2C=C[C@H](n3cc(C)c(=O)[nH]c3=O)O2)cc1 [3h, γ-Bis-(4-tetradecanoyloxybenzyl)-d4TTP]	90	355	30		500 ± 140	1100 ± 230	1630 ± 520	28000 ± 7000	4.6	
CCCCCCCCCCCCOC(=O)N(C)CCN(C)C(=O)Oc1ccc(COP(=O)(OCc2ccc(OC(=O)N(C)CCN(C)C(=O)OCCCCCCCCCCCC)cc2)OP(=O)(O)OP(=O)(O)OCC2C=CC(n3cc(C)c(=O)[nH]c3=O)O2)cc1 (stereo not drawn) [3q, γ-Bis-(4-(dodecyl-ethane-1,2-diylbis(methylcarbamate))-oxybenzyl)-d4TTP]	48									
CCCCCCCCC(=O)Oc1ccc(COP(=O)(O)OP(=O)(O)OP(=O)(O)OC[C@@H]2C=C[C@H](n3cc(C)c(=O)[nH]c3=O)O2)cc1 [4e, γ-Mono-(4-nonanoyloxybenzyl)-d4TTP]		237		1.5					1.8	
CCCCCCCCOC(=O)Oc1ccc(COP(=O)(OCc2ccc(OC(=O)OCCCCCCCC)cc2)OP(=O)(O)OP(=O)(O)OC[C@@H]2C=C[C@H](n3cc(C)c(=O)[nH]c3=O)O2)cc1 [3m, γ-Bis-(4-octyloxycarbonyloxybenzyl)-d4TTP]	82	590	0.12	17	360 ± 60	470 ± 100	1260	51000 ± 5000	2.6	
CCCCCCCCCCCCOC(=O)Oc1ccc(COP(=O)(OCc2ccc(OC(=O)OCCCCCCCCCCCC)cc2)OP(=O)(O)OP(=O)(O)OC[C@@H]2C=C[C@H](n3cc(C)c(=O)[nH]c3=O)O2)cc1 [3n, γ-Bis-(4-dodecyloxycarbonyloxybenzyl)-d4TTP]	99	631	44		500 ± 140	690 ± 210	1260	41000 ± 12000	3.0	
CC(=O)Oc1ccc(COP(=O)(O)OP(=O)(O)OP(=O)(O)OC[C@@H]2C=C[C@H](n3cc(C)c(=O)[nH]c3=O)O2)cc1 [4a, γ-Mono-(4-acetyloxybenzyl)-d4TTP]		95		108					0.040	
CCCCCCCCCCCCCCCCCC(=O)Oc1ccc(COP(=O)(OCc2ccc(OC(=O)CCCCCCCCCCCCCCCCC)cc2)OP(=O)(O)OP(=O)(O)OC[C@@H]2C=C[C@H](n3cc(C)c(=O)[nH]c3=O)O2)cc1 [3j, γ-Bis-(4-octadecanoyloxybenzyl)-d4TTP]	50	583	37		170	310	280 ± 40	29000 ± 9000	13	
CCCCCCCCCCCCCCCC(=O)Oc1ccc(COP(=O)(OCc2ccc(OC(=O)CCCCCCCCCCCCCCC)cc2)OP(=O)(O)OP(=O)(O)OC[C@@H]2C=C[C@H](n3cc(C)c(=O)[nH]c3=O)O2)cc1 [3i, γ-Bis-(4-hexadecanoyloxybenzyl)-d4TTP]	73	462	33		620 ± 300	660 ± 80	720 ± 160	61000 ± 3000	5.3	
CCCCOC(=O)N(C)CCN(C)C(=O)Oc1ccc(COP(=O)(OCc2ccc(OC(=O)N(C)CCN(C)C(=O)OCCCC)cc2)OP(=O)(O)OP(=O)(O)OCC2C=CC(n3cc(C)c(=O)[nH]c3=O)O2)cc1 (stereo not drawn) [3o, γ-Bis-(4-(butyl-ethane-1,2-diylbis(methylcarbamate))-oxybenzyl)-d4TTP]	27									
